Measured values reported in publication PMC10138654, “Structural Insights into M1 Muscarinic Acetylcholine Receptor Signaling Bias between Gαq and β-Arrestin through BRET Assays and Molecular Docking” (International Journal of Molecular Sciences, 2023).
Read-outs that look alike come from different tables or passages of the source.

What was measured:
[1] = biological target: T1, M1mAChR (Homo sapiens, UniProt P11229); assay: cell-based; conditions: for EC50: CHO-M1 cells, unit inferred, read-out: EC50, β-arrestin2 recruitment by FRET, printed in Figure 6 panels I-N
T1 sequence (P11229 1-460): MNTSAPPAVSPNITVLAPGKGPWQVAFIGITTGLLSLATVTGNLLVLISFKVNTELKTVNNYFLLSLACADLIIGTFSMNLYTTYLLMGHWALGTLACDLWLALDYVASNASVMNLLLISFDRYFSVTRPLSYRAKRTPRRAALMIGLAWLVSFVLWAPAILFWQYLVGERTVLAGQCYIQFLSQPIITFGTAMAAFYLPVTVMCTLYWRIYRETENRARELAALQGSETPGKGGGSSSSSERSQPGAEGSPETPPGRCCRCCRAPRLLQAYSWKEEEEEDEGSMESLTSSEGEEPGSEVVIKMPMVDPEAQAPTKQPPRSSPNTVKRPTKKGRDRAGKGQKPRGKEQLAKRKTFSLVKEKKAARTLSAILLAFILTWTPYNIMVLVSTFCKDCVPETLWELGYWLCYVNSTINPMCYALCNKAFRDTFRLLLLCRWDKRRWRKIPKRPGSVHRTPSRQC
Description: To further analyze the signaling bias of the agonists, a β-arrestin recruitment kit was utilized based on HTRF (Homogeneous Time Resolved Fluorescence, HTRF) technology. The interaction between native β-arrestin2 and AP2 was detected using a Europium cryptate-labeled AP2 (Adaptin2, AP2) antibody (Europium donor) and a d2-labeled β-arrestin2 antibody (acceptor) (Figure 6H).
We used the β-arrestin2 recruitment KIT test (PerkinElmer, Waltham, MA, USA, Cat. No. 62BDBAR2PEB). Following 24 h of incubation, the cell culture medium was removed, and Stimulation Buffer 4 was added to the negative control group and the blank group, while a diluted agonist was added to the agonist group, at a volume of 100 µL for each group. The plates were then sealed and allowed to incubate at room temperature for 15 min. Then, we removed the Stimulation Buffer 4 from the wells and added 30 µL of Stabilization Buffer 1, sealed the plate, and incubated it at room temperature for 15 min. Afterward, Stabilization Buffer 1 was removed, and the wells were washed three times with 100 µL of Wash Buffer 1. Following that, 100 µL of pre-mixed d2 and Eu cryptate antibodies were added to the wells, and the plates were sealed and incubated overnight at room temperature. Finally, the plates were read using an HTRF-compatible reader.

[2] = biological target: T1, M1mAChR; type: cell-based; conditions: calcium assay and commercial β-arrestin recruitment method
[3] = biological target: T2, M1mAChR (Homo sapiens, UniProt P11229); assay: cell-based
T2 construct: host or cells: HEK-293T
Target sequence in this assay (P32121 whole entry partner, one chain of several): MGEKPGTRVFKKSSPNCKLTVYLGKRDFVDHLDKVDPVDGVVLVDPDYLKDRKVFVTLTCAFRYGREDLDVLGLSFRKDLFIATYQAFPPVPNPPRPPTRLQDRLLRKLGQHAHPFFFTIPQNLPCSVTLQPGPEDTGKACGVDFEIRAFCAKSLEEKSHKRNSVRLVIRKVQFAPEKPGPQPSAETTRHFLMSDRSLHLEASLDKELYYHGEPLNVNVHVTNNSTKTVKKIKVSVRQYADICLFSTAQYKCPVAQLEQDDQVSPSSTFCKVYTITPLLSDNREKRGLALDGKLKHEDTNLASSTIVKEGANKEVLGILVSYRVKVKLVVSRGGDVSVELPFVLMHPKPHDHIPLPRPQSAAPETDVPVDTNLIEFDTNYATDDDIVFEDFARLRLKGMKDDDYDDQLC

[4] = biological target: T1, M1mAChR; type: cell-based; conditions: BRET assays
Description: The potencies and efficacies of Gαq and β-arrestin2 were verified using BRET assays, as well as commercial methods, to monitor G protein binding and β-arrestin recruitment (refer to Figure 7). […] The BRET concentration–response curves were analyzed by either conducting normalization to a reference agonist for each experiment or by analyzing them as raw net BRET (fit Emax-fit baseline). The EC50 and Emax values were estimated by fitting all biological replicates simultaneously. […] To estimate the putative signaling bias between the Gαq and β-arrestin pathways, the ΔΔlog(τ/KA) method was used, based on the following equation: bias = 10^ΔΔlog(τ/KA) Gαq−β-arrestin [46], which is derived from the RAi equation [29]. Here, ΔΔlog (τ/KA) Gαq−β-arrestin = Δlog(τ/KA) Gαq − Δlog(τ/KA) β-arrestin. For all statistically analyzed studies, the experiments were performed at least three times independently. The experiments were carried out in a randomized manner. The results are presented as the mean ± SEM. Statistical analysis was performed with a one-way analysis of variance (ANOVA). A value of p < 0.05 was considered statistically significant.

[5] = biological target: T2, M1mAChR; type: cell-based
Description: The kinetic response of the agonists to β-arrestin recruitment was analyzed.
The mean response over 100 s before and after the injection of the antagonist was also analyzed.
(§1) Incubate the cells for another 24 h at 37 °C with 5% CO2 until the cell density reaches 70%~80%. To transfect the cells, use expression constructs (total 0.1 μg/well) with a 1:1:1:1 DNA ratio of M1-RLuc8/Gαq/Gβ2/Gγ2-mVenus, or a 1:2 DNA ratio of M1-RLuc8/β-arrestin2-mVenus, and LipofectamineTM 3000 (0.15 µL/well) reagents (Thermo Scientific, Waltham, MA, USA, Cat. No. R25001). Incubate the cells for another 24 h at 37 °C with 5% CO2. […] Then, add 10 µL of freshly prepared luciferase substrate (here, Coelenterazine h was added at a final concentration of 5 μM, Hangzi Biotechnology, Shanghai, China) and mix the solution.
Target sequence in this assay (P32121 whole entry partner, one chain of several): as above

[6] = biological target: T2, M1mAChR; type: cell-based; conditions: Scopolamine 100 μM; agonist 1 μM (Pilocarpine 300 μM); mean response 100 s before vs after antagonist
Description: as §1
Target sequence in this assay (P50148 whole entry partner, one chain of several): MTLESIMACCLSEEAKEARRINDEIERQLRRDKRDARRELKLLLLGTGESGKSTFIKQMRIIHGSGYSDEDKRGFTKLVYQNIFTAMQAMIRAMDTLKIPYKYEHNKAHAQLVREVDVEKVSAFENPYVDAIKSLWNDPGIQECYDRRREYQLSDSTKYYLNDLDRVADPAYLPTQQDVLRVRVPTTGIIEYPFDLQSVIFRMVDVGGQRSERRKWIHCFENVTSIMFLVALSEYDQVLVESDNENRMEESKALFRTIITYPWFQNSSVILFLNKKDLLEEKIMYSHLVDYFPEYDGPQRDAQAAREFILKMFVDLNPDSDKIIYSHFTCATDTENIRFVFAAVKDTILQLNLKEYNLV
Target sequence in this assay (P62879 2-340 partner limits assumed, one chain of several): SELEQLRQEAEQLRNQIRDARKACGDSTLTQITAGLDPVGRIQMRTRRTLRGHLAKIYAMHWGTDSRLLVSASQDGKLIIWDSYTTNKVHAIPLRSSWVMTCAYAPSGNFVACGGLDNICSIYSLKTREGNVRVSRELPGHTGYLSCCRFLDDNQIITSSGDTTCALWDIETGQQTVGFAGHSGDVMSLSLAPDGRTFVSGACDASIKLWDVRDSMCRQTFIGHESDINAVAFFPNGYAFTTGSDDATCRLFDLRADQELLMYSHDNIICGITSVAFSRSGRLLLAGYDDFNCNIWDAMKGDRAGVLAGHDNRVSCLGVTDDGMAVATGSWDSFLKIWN
Target sequence in this assay (P59768 2-68 partner limits assumed, one chain of several): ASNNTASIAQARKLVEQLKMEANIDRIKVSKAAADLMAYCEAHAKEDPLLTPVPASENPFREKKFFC

[7] = biological target: T2, M1mAChR; assay: cell-based; conditions: for EC50: HEK293T cells
Target sequence in this assay (P50148 whole entry partner, one chain of several): as the sequence (P50148 whole entry partner, one chain of several) above
Target sequence in this assay (P62879 2-340 partner limits assumed, one chain of several): as the sequence (P62879 2-340 partner limits assumed, one chain of several) above
Target sequence in this assay (P59768 2-68 partner limits assumed, one chain of several): as the sequence (P59768 2-68 partner limits assumed, one chain of several) above

[8] = system: muscarinic; design: method as in PMID 22948826; conditions: times more potent than ACh; cited from earlier work
[9] = biological target: T1, M1mAChR; assay: cell-based; conditions: for EC50: CHO-M1 cells, unit inferred, read-out: EC50, Fluo4-AM calcium, printed in Figure 6 panels B-G
Description: The M1mAChR receptor primarily couples with Gαq, which connects it to several signaling pathways, such as PLC (phospholipase C, PLC), IP3 (inositol triphosphate, IP3), DAG (diacylglycerol, DAG), PKC (protein kinase C, PKC), and calcium signaling. Additionally, the Gαq-PLC signaling pathway plays a role in the activation of cAMP ([…], cAMP) via IP3-calcium release and calmodulin [9].
The influx of intracellular calcium was determined using Fluo4-AM (DOJINDO, Tonomachi, Japan, Cat. No.F311). CHO-M1 cells were seeded on 96-well plates at a density of 40,000 cells/well. The cells were treated with 5 µM of Fluo4-AM in 5 mM of CaCl2 buffer and incubated for 30 min at 37 °C in complete darkness.

[10] = relative intrinsic activity, relative to ACh
[11] = dose-response curve, unit inferred, read-out: EC50, β-arrestin2 interaction with M1mAChR (BRET), Figure 4
[12] = read-out: EC50, β-arrestin2 binding to M1mAChR (BRET)
[13] = dose-response curve, unit inferred, read-out: EC50, Gαq interaction with M1mAChR (BRET), in Figure 2 panels
[14] = read-out: EC50, Gαq binding to M1mAChR (BRET)

C[N+](C)(C)CC#CCOC1=NOCC1 [Iperoxo]
EC50 [1]: 646 nM
β-Arrestin (FRET) (Δlog (τ/KA)) [1, 10]: −0.03 ± 0.040
signaling bias by commercial methods [2]: predominantly biased towards Gαq
EC50 [3, 11]: 72 nM
EC50 [3, 12]: 72 nM
β-Arrestin (BRET) (Δlog (τ/KA)) [3, 10]: 1.27 ± 0.020
∆∆RAi (Gαq − β-arrestin2) [4]: 0.3
bias factor (Gαq vs β-arrestin2) ([4]; bias = 10^ΔΔlog(τ/KA) Gαq−β-arrestin, relative to ACh): 2
decrease of agonist-induced β-arrestin2 BRET response by Atropine [5]: 60%
decrease of agonist-induced β-arrestin2 BRET response by Scopolamine [5]: 54%
decrease of agonist-induced Gαq BRET response by Scopolamine [6]: approximately 41%
EC50 [7, 13]: 24.8 nM
EC50 [7, 14]: 24.8 nM
Gαq (BRET) (Δlog (τ/KA)) [7, 10]: 1.56 ± 0.090
potency relative to ACh [8]: approximately 100 times
EC50 [9]: 12.5 nM
Gαq (Fluo4-AM) (Δlog (τ/KA)) [9, 10]: 0.98 ± 0.003

C[N+](C)(C)CC#CCOC(=O)Nc1cccc(Cl)c1 [McN-A-343]
EC50 [1]: 1550 nM
EC50 [3, 11]: 981 nM
EC50 [3, 12]: 980 nM
EC50 [7, 13]: 11.1 nM
EC50 [7, 14]: 11 nM
EC50 [9]: 718 nM
